The test system of data set [1] is multiple myeloma cell line U266B1. The experiment in a line: U266 Cell Viability Assay. The class given is cell-based, human. The following applies: Homo sapiens, U-266, 48 h, U266B1 cells, Celltiter-Glo. The method, boiled down:
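Cells grown in RPMI 1640 with 10% FBS, 2 mM glutamine and penicillin/streptomycin were exposed to compound dilutions in DMSO/media for 48 hours at 37° C., 5% CO2. Viability was read by CellTiter-Glo luminescence. Undefined stereocentres mean data for stereoisomer mixtures.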
(In general: In ATP-based viability assays light output follows the ATP content of the culture.)

The nature of data set [2]: Liver Microsome Stability Assay (rat). Conditions: rat liver microsomes, with NADPH, 1.0 uM compound.
Description: (§1) Stability of a compound was assessed in the presence of liver microsomes from various sources—mouse, rat, monkey and human liver microsomes. 1.0 uM compound, 0.4% DMSO in 0.1 M Potassium Phosphate with 1.0 mg/mL liver microsomes, were incubated at 37° C. with or without 1 mM NADPH. The samples were quenched at 0, and 30 minutes.
The subject of data set [3] is IL-2-FL/Gaussia Luciferase. As to the kind of experiment: Dox Induced IL2-FL-Gluc Assay. It is filed as cell-based. The following applies: for IC50: 24 hr Dox induction, 293FRT/TO cells, read-out: 24 hr Dox Inducible IL2FLGluc 293FRT/TO: Mean IC50; for 24 hr Dox Inducible IL2FLGluc 293FRT/TO: IL2/PD1: ratio of IL2FLGluc IC50 to PD1ssGluc IC50. The essentials: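 Flp-In 293 T-REx cells stably carrying doxycycline-inducible full-length IL-2 (aa 1-153) fused at its C-terminus to Gaussia luciferase, selected with hygromycin and blasticidin. Cells were plated the day before, then treated with compounds in DMSO/media containing doxycycline at 37° C, 5% CO2.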

The nature of data set [4]: Liver Microsome Stability Assay (mouse). Conditions: mouse liver microsomes, with NADPH, 1.0 uM compound.
Description: as §1
The test system of data set [5] is TNFα-FL/Gaussia Luciferase. As to the kind of experiment: Dox Induced TNFα-FL-Gluc Assay. The class given is cell-based. The following applies: for IC50: 24 hr Dox induction, 293FRT/TO cells, read-out: 24 hr Dox Inducible TNFaFLGluc 293FRT/TO: Mean IC50; for 24 hr Dox Inducible TNFaFLGluc 293FRT/TO: TNF/PD1: ratio of TNFaFLGluc IC50 to PD1ssGluc IC50. The method, boiled down: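 Flp-In 293 T-REx cells stably expressing full-length TNFα (aa 1-233) fused at its C-terminus to Gaussia luciferase under tetracycline-regulated control were plated the day before assay. Compound dilutions in DMSO/media containing doxycycline were added and incubated at 37 °C, 5% CO2. Unspecified stereochemistry denotes stereoisomer mixtures.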

The subject of data set [6] is PD1-ss+10aa/Gaussia Luciferase. As to the kind of experiment: Dox-Induced PD1-ss-Gluc Assay. Conditions: 24 hr Dox induction, 293FRT/TO cells, read-out: 24 hr Dox Inducible PD1ssGluc 293FRT/TO: Mean IC50. The class given is cell-based. The essentials: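 Compounds were added in DMSO/media with doxycycline and incubated at 37 °C, 5% CO2, on 293 T-REx cells plated one day earlier. These cells stably express, under tetracycline-regulated control, a Gaussia luciferase fused to the PD1 signal peptide plus 10 residues. Structures drawn without stereochemistry were tested as stereoisomer mixtures.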

Data set [7] is described as follows: Liver Microsome Stability Assay (monkey). Conditions: monkey liver microsomes, with NADPH, 1.0 uM compound.
Description: as §1
The subject of data set [8] is HER3-ss+4aa/Gaussia Luciferase. As to the kind of experiment: Dox-Induced Her3-ss-Gluc Assay. It is filed as cell-based. The following applies: 24 hr Dox induction, 293FRT/TO cells, read-out: 24 hr Dox Inducible Her3(ss + 4)Gluc 293FRT/TO: Mean IC50. The method, boiled down:
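Stable Flp-In 293 T-REx line expressing Gaussia luciferase fused to the HER3 signal sequence plus 4 amino acids under tetracycline-regulated (T-REx) control. Cells plated the day before, then treated with compound dilutions in DMSO/media containing doxycycline and incubated at 37° C., 5% CO2.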

The subject of data set [9] is multiple myeloma cell line NCI-H929. As to the kind of experiment: H929 Cell Viability Assay. Conditions: Homo sapiens, NCI-H929, 48 h, NCI-H929 cells, Celltiter-Glo. The class given is cell-based, human. The essentials:
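NCI-H929 cells, resuspended in RPMI 1640 with 10% FBS and 2 mM glutamine, were treated with compound dilutions in DMSO/media and incubated 48 hours at 37° C, 5% CO2. Viability was read by CellTiter-Glo luminescence. Compounds drawn without stereochemistry were tested as stereoisomer mixtures.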

Data set [10] can be described thus: Liver Microsome Stability Assay (human). Conditions: human liver microsomes, with NADPH, 1.0 uM compound.
Description: as §1
The mark [11] stands for this setting: '<=>' given where both are I.A.

The values below come from patent publication US20230286973A1, “PROTEIN SECRETION INHIBITORS” (KEZAR LIFE SCIENCES, priority 2020, published 2023).

Read-outs that look alike come from different tables or passages of the source.

In general, EC50 refers to the concentration giving half of the maximal effect. Consider `O=C(Nc1nc([C@H]2CCCN2c2ccc(OC3COC3)cc2)cs1)c1cccn1Cc1ccncc1` [Compound A2, (R)-N-(4-(1-(4-(oxetan-3-yloxy)phenyl)pyrrolidin-2-yl)thiazol-2-yl)-1-(pyridin-4-ylmethyl)-1H-pyrrole-2-carboxamide], for which the EC50 in [1] is above 25000 nM; in [9] it was 1340 nM. For the same compound, the “Liver Microsome Stability (Multiple Species): Rat - % Remaining after 30 min w/NADPH” value in [2] amounted to 7.5%. Besides, the IC50 in data set [3] turned out to be 34 nM; in [5] it was 211 nM; in [6], 18.2 nM; in data set [8] it was 31.4 nM. Besides, the “24 hr Dox Inducible IL2FLGluc 293FRT/TO: IL2/PD1” value in data set [3] is given as 1.9. Further, the “Liver Microsome Stability (Multiple Species): Mouse - % Remaining after 30 min w/NADPH” value in data set [4] amounted to 6.6%. For the same compound, the “24 hr Dox Inducible TNFaFLGluc 293FRT/TO: TNF/PD1” value in data set [5] is recorded as 11.6. Also, in data set [7], the “Liver Microsome Stability (Multiple Species): Monkey - % Remaining after 30 min w/NADPH” value is given as 0.18%. Further, the “Liver Microsome Stability (Multiple Species): Human - % Remaining after 30 min w/NADPH” value in data set [10] is recorded as 0.92%.

As to `CC(C#N)n1cnc(/C=C/c2csc(NC(=O)c3cccn3Cc3ccnc(F)c3)n2)c1` (stereo not drawn) [Compound B107, (E)-N-(4-(2-(1-(1-cyanoethyl)-1H-imidazol-4-yl)vinyl)thiazol-2-yl)-1-((2-fluoropyridin-4-yl)methyl)-1H-pyrrole-2-carboxamide], the EC50 in data set [1] and in data set [9] was above 25000 nM throughout. Also, the “Liver Microsome Stability (Multiple Species): Rat - % Remaining after 30 min w/NADPH” value in data set [2] is on record as 18.8%. Besides, the IC50 in data set [3] is above 25000 nM; in data set [5], above 25000 nM; in [6], 476 nM; in data set [8], above 25000 nM. In addition, in [3], the “24 hr Dox Inducible IL2FLGluc 293FRT/TO: IL2/PD1” value is recorded as above 52. Also, the “Liver Microsome Stability (Multiple Species): Mouse - % Remaining after 30 min w/NADPH” value in [4] worked out at 35.4%. Also, the “24 hr Dox Inducible TNFaFLGluc 293FRT/TO: TNF/PD1” value in [5] is listed as above 52.5. Besides, in [7], the “Liver Microsome Stability (Multiple Species): Monkey - % Remaining after 30 min w/NADPH” value is given as 0.33%. In data set [10], the “Liver Microsome Stability (Multiple Species): Human - % Remaining after 30 min w/NADPH” value is recorded as 0.55%.

Take `O=C(Nc1nc([C@H]2CCCN2c2ccccc2)cs1)c1cccn1CCCCc1nnn[nH]1` [Compound C4, (R)-1-(4-(1H-tetrazol-5-yl)butyl)-N-(4-(1-phenylpyrrolidin-2-yl)thiazol-2-yl)-1H-pyrrole-2-carboxamide]: the EC50 in [1] and in data set [9] was above 25000 nM in each case. Also, the “Liver Microsome Stability (Multiple Species): Rat - % Remaining after 30 min w/NADPH” value in [2] is reported as 62.1%. For the same compound, the IC50 in data set [3] (mean) stood at 1940 nM; in [5] (mean) it was 16500 nM; in [6] (mean), 782 nM; in [8] (mean) it was 1540 nM. Further, the “24 hr Dox Inducible IL2FLGluc 293FRT/TO: IL2/PD1” value in data set [3] (setting [11]) is given as 2.5. Besides, the “Liver Microsome Stability (Multiple Species): Mouse - % Remaining after 30 min w/NADPH” value in data set [4] is 49.1%. Besides, in data set [5] (setting [11]), the “24 hr Dox Inducible TNFaFLGluc 293FRT/TO: TNF/PD1” value is recorded as 21.1. In addition, the “Liver Microsome Stability (Multiple Species): Monkey - % Remaining after 30 min w/NADPH” value in [7] was 70.3%. In data set [10], the “Liver Microsome Stability (Multiple Species): Human - % Remaining after 30 min w/NADPH” value was found to be 96.7%.

`COc1ccc(O[C@H]2CC[C@@H](c3csc(NC(=O)c4cccn4Cc4ccncc4)n3)CC2)nc1` [Compound E35, N-(4-((1s,4s)-4-((5-methoxypyridin-2-yl)oxy)cyclohexyl)thiazol-2-yl)-1-(pyridin-4-ylmethyl)-1H-pyrrole-2-carboxamide]: the EC50 was found to be 18200 nM in data set [1] and 8640 nM in data set [9]. Moreover, the “Liver Microsome Stability (Multiple Species): Rat - % Remaining after 30 min w/NADPH” value in data set [2] is given as 1.2%. Also, the IC50 in data set [3] (mean) came to 927 nM; in data set [5] (mean), 4830 nM; in data set [6] (mean), 148 nM; in data set [8] (mean), 388 nM. Further, the “24 hr Dox Inducible IL2FLGluc 293FRT/TO: IL2/PD1” value in data set [3] (setting [11]) turned out to be 6.3. Also, the “Liver Microsome Stability (Multiple Species): Mouse - % Remaining after 30 min w/NADPH” value in data set [4] stood at 0.08%. Further, the “24 hr Dox Inducible TNFaFLGluc 293FRT/TO: TNF/PD1” value in data set [5] (setting [11]) is on record as 32.6. Also, the “Liver Microsome Stability (Multiple Species): Monkey - % Remaining after 30 min w/NADPH” value in data set [7] is listed as 0.7%. Also, in [10], the “Liver Microsome Stability (Multiple Species): Human - % Remaining after 30 min w/NADPH” value is 0.41%.

With `NS(=O)(=O)N1CC(Oc2ccc(N3CCC[C@@H]3c3csc(NC(=O)c4cccn4Cc4ccnc(F)c4)n3)cc2)C1` [Compound A150, (R)-1-((2-fluoropyridin-4-yl)methyl)-N-(4-(1-(4-((1-sulfamoylazetidin-3-yl)oxy)phenyl)pyrrolidin-2-yl)thiazol-2-yl)-1H-pyrrole-2-carboxamide], the EC50 is above 25000 nM in data set [1] and 3270 nM in data set [9]. Further, the “Liver Microsome Stability (Multiple Species): Rat - % Remaining after 30 min w/NADPH” value in data set [2] was found to be 51.6%. The IC50 in data set [3] is 130 nM; in data set [5], 758 nM; in data set [6], 49.2 nM; in data set [8] it was 82.1 nM. For the same compound, the “24 hr Dox Inducible IL2FLGluc 293FRT/TO: IL2/PD1” value in [3] turned out to be 2.6. For the same compound, the “Liver Microsome Stability (Multiple Species): Mouse - % Remaining after 30 min w/NADPH” value in [4] was 36.3%. In data set [5], the “24 hr Dox Inducible TNFaFLGluc 293FRT/TO: TNF/PD1” value came to 15.4. Moreover, in data set [7], the “Liver Microsome Stability (Multiple Species): Monkey - % Remaining after 30 min w/NADPH” value was 0.71%. The “Liver Microsome Stability (Multiple Species): Human - % Remaining after 30 min w/NADPH” value in [10] is listed as 17.4%.

Consider `CC(C#N)CCn1cccc1C(=O)Nc1nc([C@H]2CCCN2c2ccccc2)cs1` (stereo partly drawn) [Compound C89, 1-(3-cyanobutyl)-N-(4-((R)-1-phenylpyrrolidin-2-yl)thiazol-2-yl)-1H-pyrrole-2-carboxamide], for which the EC50 in data set [1] and in data set [9] was above 25000 nM each time. Besides, the “Liver Microsome Stability (Multiple Species): Rat - % Remaining after 30 min w/NADPH” value in data set [2] is recorded as 5.16%. The IC50 in [3] (mean) was found to be 2860 nM; in [5] (mean), 14500 nM; in [6] (mean), 1180 nM; in [8] (mean), 1790 nM. In addition, in data set [3] (setting [11]), the “24 hr Dox Inducible IL2FLGluc 293FRT/TO: IL2/PD1” value was found to be 2.4. Also, in [4], the “Liver Microsome Stability (Multiple Species): Mouse - % Remaining after 30 min w/NADPH” value stood at 16.5%. Also, the “24 hr Dox Inducible TNFaFLGluc 293FRT/TO: TNF/PD1” value in [5] (setting [11]) was 12.3. Moreover, in [7], the “Liver Microsome Stability (Multiple Species): Monkey - % Remaining after 30 min w/NADPH” value is 0.31%. Moreover, in [10], the “Liver Microsome Stability (Multiple Species): Human - % Remaining after 30 min w/NADPH” value amounted to 24%.

As to `O=C(Nc1nc(/C=C/c2ncoc2C2CCCCC2)cs1)c1cccn1Cc1ccncc1` [Compound B52, (E)-N-(4-(2-(5-cyclohexyloxazol-4-yl)vinyl)thiazol-2-yl)-1-(pyridin-4-ylmethyl)-1H-pyrrole-2-carboxamide], the EC50 in data set [1] was above 25000 nM; in data set [9], 15900 nM. Further, the “Liver Microsome Stability (Multiple Species): Rat - % Remaining after 30 min w/NADPH” value in data set [2] stood at 4.04%. Besides, the IC50 in data set [3] was 2100 nM; in data set [5], 4840 nM; in data set [6], 25.5 nM; in data set [8], 735 nM. Also, the “24 hr Dox Inducible IL2FLGluc 293FRT/TO: IL2/PD1” value in [3] turned out to be 82. In addition, in data set [4], the “Liver Microsome Stability (Multiple Species): Mouse - % Remaining after 30 min w/NADPH” value was found to be 32.1%. Moreover, the “24 hr Dox Inducible TNFaFLGluc 293FRT/TO: TNF/PD1” value in [5] is 190. Further, the “Liver Microsome Stability (Multiple Species): Monkey - % Remaining after 30 min w/NADPH” value in [7] was determined as 10.8%. In addition, the “Liver Microsome Stability (Multiple Species): Human - % Remaining after 30 min w/NADPH” value in [10] amounted to 5.82%.
